Laboratory results as given in patent publication US12215140B2, “Method of stabilizing protein contained in specimen and solution for stabilizing protein contained in specimen” (EIKEN KAGAKU KABUSHIKI KAISHA, priority 2018, dated 2025).

Test system: hemoglobin-haptoglobin complex
Assay: Stability of hemoglobin (as hemoglobin-haptoglobin complex) in samples preserved at 37° C. in preservation solution containing 1 unit/L haptoglobin, Hb measured by latex agglutination method (Examples 1 to 7)
Set-up: species or system human
How it was run: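 Latex agglutination (anti-human hemoglobin rabbit polyclonal latex) measured Hb in samples stored at 37 °C up to 21 days; values expressed as % recovery versus day 0. Preservation solution: HEPES 40 mmol/L pH 6.8, BSA 0.1%, NaN3 0.1%, haptoglobin 1 unit/L, phenylboronic acid 0–100 mmol/L, optional sugars; ~300 µg/L Hb, 0.5% feces or none.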

[1] = Feces 3, phenylboronic acid 0.5 mmol/L, 37° C., 7 days
[2] = Feces 3, phenylboronic acid 0.5 mmol/L, 37° C., 14 days
[3] = Feces 3, phenylboronic acid 0.5 mmol/L, 37° C., 21 days
[4] = Feces 3, phenylboronic acid 1 mmol/L, 37° C., 7 days
[5] = Feces 3, phenylboronic acid 1 mmol/L, 37° C., 14 days
[6] = Feces 3, phenylboronic acid 1 mmol/L, 37° C., 21 days
[7] = Feces 3, phenylboronic acid 15 mmol/L, 37° C., 0 days
[8] = Feces 3, phenylboronic acid 15 mmol/L, 37° C., 7 days
[9] = Feces 3, phenylboronic acid 15 mmol/L, 37° C., 14 days
[10] = Feces 3, phenylboronic acid 15 mmol/L, 37° C., 21 days
[11] = Feces 3, phenylboronic acid 50 mmol/L, 37° C., 0 days
[12] = Feces 3, phenylboronic acid 50 mmol/L, 37° C., 7 days
[13] = Feces 3, phenylboronic acid 50 mmol/L, 37° C., 14 days
[14] = Feces 3, phenylboronic acid 50 mmol/L, 37° C., 21 days
[15] = Feces 3, phenylboronic acid 100 mmol/L, 37° C., 0 days
[16] = Feces 3, phenylboronic acid 100 mmol/L, 37° C., 7 days
[17] = Feces 3, phenylboronic acid 100 mmol/L, 37° C., 14 days
[18] = Feces 3, phenylboronic acid 100 mmol/L, 37° C., 21 days
[19] = No feces, phenylboronic acid 0.5 mmol/L, 37° C., 7 days
[20] = No feces, phenylboronic acid 0.5 mmol/L, 37° C., 14 days
[21] = No feces, phenylboronic acid 0.5 mmol/L, 37° C., 21 days
[22] = No feces, phenylboronic acid 1 mmol/L, 37° C., 7 days
[23] = No feces, phenylboronic acid 1 mmol/L, 37° C., 14 days
[24] = No feces, phenylboronic acid 1 mmol/L, 37° C., 21 days
[25] = No feces, phenylboronic acid 15 mmol/L, 37° C., 0 days
[26] = No feces, phenylboronic acid 15 mmol/L, 37° C., 7 days
[27] = No feces, phenylboronic acid 15 mmol/L, 37° C., 14 days
[28] = No feces, phenylboronic acid 15 mmol/L, 37° C., 21 days
[29] = No feces, phenylboronic acid 50 mmol/L, 37° C., 0 days
[30] = No feces, phenylboronic acid 50 mmol/L, 37° C., 7 days
[31] = No feces, phenylboronic acid 50 mmol/L, 37° C., 14 days
[32] = No feces, phenylboronic acid 50 mmol/L, 37° C., 21 days
[33] = No feces, phenylboronic acid 100 mmol/L, 37° C., 0 days
[34] = No feces, phenylboronic acid 100 mmol/L, 37° C., 7 days
[35] = No feces, phenylboronic acid 100 mmol/L, 37° C., 14 days
[36] = No feces, phenylboronic acid 100 mmol/L, 37° C., 21 days

`OB(O)c1ccccc1` [phenylboronic acid] was tested, and the “Recovery ratio with respect to Hb concentration after 0 days” value (“Recovery ratio … after 0 days” below) (Feces 3, phenylboronic acid 0.5 mmol/L, 37° C., 0 days) was 100%, the Hb concentration [1] was 133 µg/L and the “Recovery ratio … after 0 days” value [1] was 47%. For the same molecule, the Hb concentration [2] was 104 µg/L, the “Recovery ratio … after 0 days” value [2] was 37% and the Hb concentration [3] was 93 µg/L. For the same molecule, the “Recovery ratio … after 0 days” value [3] was 33%, the “Recovery ratio … after 0 days” value (Feces 3, phenylboronic acid 1 mmol/L, 37° C., 0 days) was 100% and the Hb concentration [4] was 159 µg/L. For the same molecule, the “Recovery ratio … after 0 days” value [4] was 57%, the Hb concentration [5] was 131 µg/L and the “Recovery ratio … after 0 days” value [5] was 47%. For the same molecule, the Hb concentration [6] was 115 µg/L, the “Recovery ratio … after 0 days” value [6] was 41% and the Hb concentration (Feces 3, phenylboronic acid 15 mmol/L, no sugar, 0 days at 37° C.) was 288 µg/L. It also gave a Hb concentration (Feces 3, phenylboronic acid 15 mmol/L, no sugar, 7 days at 37° C.) of 224 µg/L, a Hb concentration (Feces 3, phenylboronic acid 15 mmol/L, no sugar, 14 days at 37° C.) of 200 µg/L and a Hb concentration (Feces 3, phenylboronic acid 15 mmol/L, no sugar, 21 days at 37° C.) of 185 µg/L. For the same molecule, the Hb concentration [7] was 288 µg/L, the “Recovery ratio … after 0 days” value [7] was 100% and the Hb concentration [8] was 224 µg/L. For the same molecule, the “Recovery ratio … after 0 days” value [8] was 78%, the Hb concentration [9] was 200 µg/L and the “Recovery ratio … after 0 days” value [9] was 69%. For the same molecule, the Hb concentration [10] was 185 µg/L, the “Recovery ratio … after 0 days” value [10] was 64% and the Hb concentration [11] was 274 µg/L. The “Recovery ratio … after 0 days” value [11] was 100%, the Hb concentration [12] was 204 µg/L and the “Recovery ratio … after 0 days” value [12] was 74%. For the same molecule, the Hb concentration [13] was 176 µg/L, the “Recovery ratio … after 0 days” value [13] was 64% and the Hb concentration [14] was 158 µg/L. The “Recovery ratio … after 0 days” value [14] was 58%, the Hb concentration [15] was 247 µg/L and the “Recovery ratio … after 0 days” value [15] was 100%. The Hb concentration [16] was 156 µg/L, the “Recovery ratio … after 0 days” value [16] was 63% and the Hb concentration [17] was 88 µg/L. For the same molecule, the “Recovery ratio … after 0 days” value [17] was 36%, the Hb concentration [18] was 53 µg/L and the “Recovery ratio … after 0 days” value [18] was 21%. The “Recovery ratio … after 0 days” value (No feces, phenylboronic acid 0.5 mmol/L, 37° C., 0 days) was 100%, the Hb concentration [19] was 248 µg/L and the “Recovery ratio … after 0 days” value [19] was 96%. The Hb concentration [20] was 243 µg/L, the “Recovery ratio … after 0 days” value [20] was 95% and the Hb concentration [21] was 246 µg/L. The “Recovery ratio … after 0 days” value [21] was 96%, the “Recovery ratio … after 0 days” value (No feces, phenylboronic acid 1 mmol/L, 37° C., 0 days) was 100% and the Hb concentration [22] was 244 µg/L. For the same molecule, the “Recovery ratio … after 0 days” value [22] was 92%, the Hb concentration [23] was 241 µg/L and the “Recovery ratio … after 0 days” value [23] was 91%. For the same molecule, the Hb concentration [24] was 244 µg/L, the “Recovery ratio … after 0 days” value [24] was 92% and the Hb concentration (No feces, phenylboronic acid 15 mmol/L, no sugar, 0 days at 37° C.) was 286 µg/L. It also gave a Hb concentration (No feces, phenylboronic acid 15 mmol/L, no sugar, 7 days at 37° C.) of 262 µg/L, a Hb concentration (No feces, phenylboronic acid 15 mmol/L, no sugar, 14 days at 37° C.) of 253 µg/L and a Hb concentration [25] of 286 µg/L. For the same molecule, the “Recovery ratio … after 0 days” value [25] was 100%, the Hb concentration [26] was 262 µg/L and the “Recovery ratio … after 0 days” value [26] was 92%. For the same molecule, the Hb concentration [27] was 253 µg/L, the “Recovery ratio … after 0 days” value [27] was 88% and the Hb concentration [28] was 264 µg/L. For the same molecule, the “Recovery ratio … after 0 days” value [28] was 92%, the Hb concentration [29] was 260 µg/L and the “Recovery ratio … after 0 days” value [29] was 100%. The Hb concentration [30] was 242 µg/L, the “Recovery ratio … after 0 days” value [30] was 93% and the Hb concentration [31] was 228 µg/L. For the same molecule, the “Recovery ratio … after 0 days” value [31] was 88%, the Hb concentration [32] was 235 µg/L and the “Recovery ratio … after 0 days” value [32] was 90%. For the same molecule, the Hb concentration [33] was 239 µg/L, the “Recovery ratio … after 0 days” value [33] was 100% and the Hb concentration [34] was 198 µg/L. For the same molecule, the “Recovery ratio … after 0 days” value [34] was 83%, the Hb concentration [35] was 183 µg/L and the “Recovery ratio … after 0 days” value [35] was 77%. The Hb concentration [36] was 178 µg/L, the “Recovery ratio … after 0 days” value [36] was 74% and the apparent recovery ratio (addition of 50 mmol/L or more phenylboronic acid) was “decreased”. For the same molecule, the “decrease in the apparent recovery ratios” value (phenylboronic acid 50 mmol/L in preservation solutions to which a sugar (100 mmol/L) was added) was “not observed”, the “phenylboronic acid concentration at which the recovery ratio of hemoglobin reached the maximum” value (samples containing feces, 37° C.) was 15 mmol/L and the “improvement of recovery ratio by addition of phenylboronic acid” value (samples containing no fecal specimens) was “not observed”.
